Results as given in PubChem BioAssay (NCI).
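The compound was tested at five concentrations on cells cultured in 96-well plates, with a 48-hour exposure period. The concentration for 50% growth inhibition is given as GI50. The concentration for full growth arrest is given as TGI.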

Assays:
Experiment in all cases: inhibition of tumour cell growth, NCI panel, 48 h
BT-549 breast = test system: BT-549 breast
SK-MEL-28 melanoma = test system: SK-MEL-28 melanoma
NCI-H226 lung = test system: NCI-H226 lung
HOP-92 NSCLC = test system: HOP-92 NSCLC
K-562 leukemia = test system: K-562 leukemia
RPMI-8226 leukemia = test system: RPMI-8226 leukemia
MOLT-4 leukemia = test system: MOLT-4 leukemia
OVCAR-4 ovarian = test system: OVCAR-4 ovarian
M14 melanoma = test system: M14 melanoma
OVCAR-5 ovarian = test system: OVCAR-5 ovarian
U251 CNS = test system: U251 CNS
NCI/ADR-RES ovarian = test system: NCI/ADR-RES ovarian
EKVX NSCLC = test system: EKVX NSCLC
CAKI-1 renal = test system: CAKI-1 renal
HS 578T breast = test system: HS 578T breast
SF-295 CNS = test system: SF-295 CNS
A549 NSCLC = test system: A549 NSCLC
MCF7 breast = test system: MCF7 breast
HL-60(TB) leukemia = test system: HL-60(TB) leukemia
TK-10 renal = test system: TK-10 renal
SNB-75 CNS = test system: SNB-75 CNS
RXF 393 renal = test system: RXF 393 renal
MDA-MB-435 = test system: MDA-MB-435
UACC-257 melanoma = test system: UACC-257 melanoma
CCRF-CEM leukemia = test system: CCRF-CEM leukemia
KM12 colon = test system: KM12 colon
HT29 colon = test system: HT29 colon
NCI-H522 lung = test system: NCI-H522 lung
IGROV1 ovarian = test system: IGROV1 ovarian

Question: What does the source list for COc1ccc(/C(C)=C(\c2ccc(Cl)cc2)c2ccc(OCCN3CCCC3)cc2)cc1F?
Answer: TGI (BT-549 breast): 6.74 µM; GI50 (SK-MEL-28 melanoma): 3.13 µM; TGI (SK-MEL-28 melanoma): 6.27 µM; GI50 (NCI-H226 lung): 4.47 µM; TGI (NCI-H226 lung): 8.88 µM; GI50 (HOP-92 NSCLC): 3.12 µM; TGI (HOP-92 NSCLC): 6.63 µM; GI50 (K-562 leukemia): 0.944 µM; TGI (K-562 leukemia): 4.54 µM; GI50 (RPMI-8226 leukemia): 3.57 µM; TGI (RPMI-8226 leukemia): 9.23 µM; GI50 (MOLT-4 leukemia): 3.48 µM; TGI (MOLT-4 leukemia): 8.28 µM; GI50 (OVCAR-4 ovarian): 3.21 µM; TGI (OVCAR-4 ovarian): 6.62 µM; GI50 (M14 melanoma): 0.882 µM; TGI (M14 melanoma): 3.09 µM; GI50 (OVCAR-5 ovarian): 3.15 µM; TGI (OVCAR-5 ovarian): 6.37 µM; GI50 (U251 CNS): 3.15 µM; TGI (U251 CNS): 7.17 µM; GI50 (NCI/ADR-RES ovarian): 3.9 µM; TGI (NCI/ADR-RES ovarian): 7.8 µM; GI50 (EKVX NSCLC): 3.73 µM; TGI (EKVX NSCLC): 7.27 µM; GI50 (CAKI-1 renal): 3.43 µM; TGI (CAKI-1 renal): 6.69 µM; GI50 (HS 578T breast): 3.77 µM; TGI (HS 578T breast): 9.55 µM; GI50 (SF-295 CNS): 2.92 µM; TGI (SF-295 CNS): 6.25 µM; GI50 (A549 NSCLC): 3.01 µM; TGI (A549 NSCLC): 7.01 µM; GI50 (MCF7 breast): 2.41 µM; TGI (MCF7 breast): 6.15 µM; GI50 (HL-60(TB) leukemia): 3.54 µM; TGI (HL-60(TB) leukemia): 7.89 µM; GI50 (TK-10 renal): 3.58 µM; TGI (TK-10 renal): 8.13 µM; GI50 (SNB-75 CNS): 4.42 µM; TGI (SNB-75 CNS): 8.22 µM; GI50 (RXF 393 renal): 3.19 µM; TGI (RXF 393 renal): 6.49 µM; GI50 (MDA-MB-435): 1.48 µM; TGI (MDA-MB-435): 4.65 µM; GI50 (UACC-257 melanoma): 0.872 µM; TGI (UACC-257 melanoma): 3.2 µM; GI50 (CCRF-CEM leukemia): 4.24 µM; TGI (CCRF-CEM leukemia): 10.7 µM; GI50 (KM12 colon): 1.26 µM; TGI (KM12 colon): 4.5 µM; GI50 (HT29 colon): 0.724 µM; TGI (HT29 colon): 3.47 µM; GI50 (NCI-H522 lung): 4.35 µM; TGI (NCI-H522 lung): 8.94 µM; GI50 (IGROV1 ovarian): 3.17 µM; TGI (IGROV1 ovarian): 7.21 µM
